The values that follow come from patent US20250295655A1, “BRUTON'S KINASE INHIBITORS FOR THE TREATMENT OF A SUDDEN ALLERGIC REACTION” (ALK-ABELLÓ A/S, priority 2022, published 2025).

One assay concerns basophils. Kind of assay: Basophil activation (CD63 FACS) after allergen stimulation, BTKi added before or after. It is filed as cell-based, human. Particulars: BTKi 1000 or 5000 nM added before or 1, 5, 15, 30 min after allergen stimulation; vs water control. On the procedure:
PBMCs were isolated from heparinized blood using Leucoseptubes (Greiner 227390) with Lymfoprep (Fresenius Kabi 1114547). Following isolation, the cells were washed and resuspended in RPMI 0.5% HSA (RPMI 1640 Gibco 72400-021, HSA Sigma A8763) to 0.25× original blood volume. 2 ng/ml of cytokine IL-3 (RD Peprotec cat nr 200-03) was added to the cells for Basophil priming with final 1 ng/ml. 50 μl of the cell suspension was used for each test, corresponding to 200 μl blood.
The test can be carried out with any BTKi. In the present example, the following BTKis were tested: • Acalabrutinib (Cat A-7337, 100 mM in DMSO) was diluted in RPMI 0.5% HSA to a concentration of 10,000 and 2,000 nM. • Ibrutinib was diluted in RPMI 0.5% HSA to a concentration of 20.000, 5.000 and 1.000 nM. • Branebrutinib was diluted in RPMI 0.5% HSA to a concentration of 20.000 and 5.000 nM. • Remibrutinib was diluted in RPMI 0.5% HSA to a concentration of 20.000 and 5.000 nM. • Pirtobrutinib was diluted in RPMI 0.5% HSA to a concentration of 20.000 and 5.000 nM.
Allergens: Grass pollen extract of the species Phleum pratense (ALK) was diluted in RPMI 0.5%-HSA to five concentrations of 100, 10, 1.0, 0.1 and 0.01 ng/ml. House dust mite allergen extract of the species Dermatophagoides pterinussinus (Derp ex) were made in concentrations of 0.1, 1 and 10 ug/ml by dilution in RPMI 0.5% HSA.
The experiment was performed in 96 deep-well plates. 50 μl cell suspension (as described above) was added to each well. 50 μl activation stimuli and 100 μl BTK inhibitor or buffer were added at different time points (t=0 min, 5 min, 15 min or 30 min). Following addition of the components, the plate was incubated at 37° C. water bath for one hour. After incubation, the activation was stopped by adding 500 μl FACS FLOW (BD342003), 0.5% BSA (Fisher scientific BP9703-100)+10 mM EDTA (Invitrogen 15575-038). The plate was centrifuged for 5 min, at 600×G and 4° C. Supernatants were harvested and used for measurement of histamine by ELISA (supplier). Cell pellets were further washed and stained for FACS analysis with CD63 FITC (BD 557288) CD203c APC (e-bio) and CD123 PE (BD340545) using standard FACS staining procedure, 30 min on ice protected from light, followed by fixation with Cell Fix (BD) before analysis on Fortessa flowcytometer. Flowcytometer data was analyzed using FlowJo software and statistical data from here used for data analysis.

The subject of a further assay is ex-vivo blood basophils. Particulars: leukemia patient treated with ibrutinib; cited from earlier work.
Another assay relates to JAK2/STAT3 pathway. Conditions: cited from earlier work.
The test system of the next assay is basophil cells. Conditions: pretreatment of basophil cells before allergen exposure; cited from earlier work.
Assay [1] has as its system mast cell and basophil reactivity to food. Conditions: ibrutinib daily for up to seven days before allergen exposure; cited from earlier work.

Structures are written as SMILES.

`CC#CC(=O)N[C@H]1CCCN(c2c(F)cc(C(N)=O)c3[nH]c(C)c(C)c23)C1` [Branebrutinib, 4-[(3S)-3-(but-2-ynoylamino)piperidin-1-yl]-5-fluoro-2,3-dimethyl-1H-indole-7-carboxamide]: the “activation of cells after stimulation with an allergen (percent activation of basophils)” value (shortened to “activation … (percent activation of basophils)”) with basophils is listed as “able to decrease the activation of cells”.
Regarding `C=CC(=O)N(C)CCOc1c(N)ncnc1-c1cc(F)cc(NC(=O)c2ccc(C3CC3)cc2F)c1C` [Remibrutinib, N-[3-[6-amino-5-[2-[methyl(prop-2-enoyl)amino]ethoxy]pyrimidin-4-yl]-5-fluoro-2-methylphenyl]-4-cyclopropyl-2-fluorobenzamide], the “activation … (percent activation of basophils)” value in the assay on basophils was “able to decrease the activation of cells”.
On the same count and under the same terms, the entry for `COc1ccc(F)cc1C(=O)NCc1ccc(-c2nn([C@@H](C)C(F)(F)F)c(N)c2C(N)=O)cc1` [Pirtobrutinib, 5-amino-3-[4-[[(5-fluoro-2-methoxybenzoyl)amino]methyl]phenyl]-1-[(2S)-1,1,1-trifluoropropan-2-yl]pyrazole-4-carboxamide] is “able to decrease the activation of cells”.
Turning to `C=CC(=O)N1CCC[C@@H](n2nc(-c3ccc(Oc4ccccc4)cc3)c3c(N)ncnc32)C1` [Ibrutinib, 1-[(3R)-3-[4-amino-3-(4-phenoxyphenyl)-1H-pyrazolo[3,4-d]pyrimidin-1-yl]-1-piperidinyl]-2-propen-1-one], the “IgE-dependent histamine release in ex-vivo blood basophils” value in the assay with ex-vivo blood basophils is recorded as “largely suppressed”. Besides, in the assay on JAK2/STAT3 pathway, the “inhibition of JAK2/STAT3 pathway induced by Concavalin A” value is on record as “able to inhibit”. Also, in the assay on basophil cells, the IgE-mediated histamine release entry is reported as “inhibit IgE-mediated histamine release”. For the same molecule, in assay [1], the “mast cell and basophil reactivity to food (SPT, BAT)” value is “can reduce mast cell and basophil reactivity”. Also, in the assay with basophils, the “activation … (percent activation of basophils)” value is “able to decrease the activation of cells”.
